US20250213558A1, “T-TYPE CALCIUM CHANNEL MODULATORS COMPRISING A PIPERAZINE OR 1,4-DIAZEPANE CORE AND METHODS OF USE THEREOF” (Praxis Precision Medicines, Inc., priority 2022, published 2025)
Like-named read-outs stand apart in the source and are kept apart here.

Target: T1, Human Cav3.1 calcium channel (Homo sapiens, UniProt O43497)
T1 construct: expressed in transfected cells; host or cells: HEK-293 natClytin/TASK1+Cav3.1 cell line
Assay: Human Cav3.1 calcium channel patch clamp assay (SyncroPatch 384PE; single point and IC50, voltage dependent block)
Format: cell-based
Details: for % Inhibition (Single Point Data): Testing Conc 1.25, patch clamp
Method: Certain compounds (as indicated) were tested for Human Cav3.1 calcium channel activity via a patch clamp assay as disclosed herein.
Pulse generation and data collection were performed with PatchController384 V1.3.0 and DataController384 V1.2.1 (Nanion Technologies). Offline analysis was performed using Excel and Graphpad Prism (V 8.4.2) with complete data files uploaded to Dotmatics. The access resistance and apparent membrane capacitance were estimated using built-in protocols. Current was recorded in whole cell configuration from a population of cells. The cells were lifted, triturated, and resuspended at 800,000 cells/ml. The cells were allowed to recover in the cell hotel prior to experimentation. Currents were recorded at room temperature. The external solution contained the following (in mM): NaCl 80, NMDG 60, KCl 4, MgCl2 1, CaCl2 6, glucose 5 and HEPES 10 (pH=7.4, Osmolarity˜300 mOsm). The extracellular solution was used as the wash, reference and compound delivery solution.
The compound plate was created at 2× concentrated in the extracellular solution. The compound was diluted to 1:2 when added to the recording well. The amount of DMSO in the extracellular solution was held constant at the level used for the highest tested concentration. For the voltage clamp experiments on Cav3.1, data were sampled at 10 KHz. After establishment of the seal and the passage in the whole cell configuration, the cells were held at −120 mV. Cav3.1 current was evoked using a 100 ms step to −20 mV (to measure resting state block), followed by a 1600 ms step to −65 mV and a second 100 ms step to −20 mV (to measure voltage dependent block). The voltage protocol was applied every 15 seconds in the absence and in the presence of the compounds under investigation. […] Current amplitude (pA) was measured in the peak 1 and 2. The average of last 3 sweeps of each liquid period (vehicle, compound under investigation, full block) was calculated. Nickel-sensitive current was used to calculate the % of inhibition in the presence of the compound under investigation.

[1] = HEK-293 natClytin/TASK1+Cav3.1 cell line
[2] = voltage dependent block (VDB), HEK-293 natClytin/TASK1+Cav3.1 cell line, read-out: Cav3.1 IC50

T1 sequence (O43497 whole entry): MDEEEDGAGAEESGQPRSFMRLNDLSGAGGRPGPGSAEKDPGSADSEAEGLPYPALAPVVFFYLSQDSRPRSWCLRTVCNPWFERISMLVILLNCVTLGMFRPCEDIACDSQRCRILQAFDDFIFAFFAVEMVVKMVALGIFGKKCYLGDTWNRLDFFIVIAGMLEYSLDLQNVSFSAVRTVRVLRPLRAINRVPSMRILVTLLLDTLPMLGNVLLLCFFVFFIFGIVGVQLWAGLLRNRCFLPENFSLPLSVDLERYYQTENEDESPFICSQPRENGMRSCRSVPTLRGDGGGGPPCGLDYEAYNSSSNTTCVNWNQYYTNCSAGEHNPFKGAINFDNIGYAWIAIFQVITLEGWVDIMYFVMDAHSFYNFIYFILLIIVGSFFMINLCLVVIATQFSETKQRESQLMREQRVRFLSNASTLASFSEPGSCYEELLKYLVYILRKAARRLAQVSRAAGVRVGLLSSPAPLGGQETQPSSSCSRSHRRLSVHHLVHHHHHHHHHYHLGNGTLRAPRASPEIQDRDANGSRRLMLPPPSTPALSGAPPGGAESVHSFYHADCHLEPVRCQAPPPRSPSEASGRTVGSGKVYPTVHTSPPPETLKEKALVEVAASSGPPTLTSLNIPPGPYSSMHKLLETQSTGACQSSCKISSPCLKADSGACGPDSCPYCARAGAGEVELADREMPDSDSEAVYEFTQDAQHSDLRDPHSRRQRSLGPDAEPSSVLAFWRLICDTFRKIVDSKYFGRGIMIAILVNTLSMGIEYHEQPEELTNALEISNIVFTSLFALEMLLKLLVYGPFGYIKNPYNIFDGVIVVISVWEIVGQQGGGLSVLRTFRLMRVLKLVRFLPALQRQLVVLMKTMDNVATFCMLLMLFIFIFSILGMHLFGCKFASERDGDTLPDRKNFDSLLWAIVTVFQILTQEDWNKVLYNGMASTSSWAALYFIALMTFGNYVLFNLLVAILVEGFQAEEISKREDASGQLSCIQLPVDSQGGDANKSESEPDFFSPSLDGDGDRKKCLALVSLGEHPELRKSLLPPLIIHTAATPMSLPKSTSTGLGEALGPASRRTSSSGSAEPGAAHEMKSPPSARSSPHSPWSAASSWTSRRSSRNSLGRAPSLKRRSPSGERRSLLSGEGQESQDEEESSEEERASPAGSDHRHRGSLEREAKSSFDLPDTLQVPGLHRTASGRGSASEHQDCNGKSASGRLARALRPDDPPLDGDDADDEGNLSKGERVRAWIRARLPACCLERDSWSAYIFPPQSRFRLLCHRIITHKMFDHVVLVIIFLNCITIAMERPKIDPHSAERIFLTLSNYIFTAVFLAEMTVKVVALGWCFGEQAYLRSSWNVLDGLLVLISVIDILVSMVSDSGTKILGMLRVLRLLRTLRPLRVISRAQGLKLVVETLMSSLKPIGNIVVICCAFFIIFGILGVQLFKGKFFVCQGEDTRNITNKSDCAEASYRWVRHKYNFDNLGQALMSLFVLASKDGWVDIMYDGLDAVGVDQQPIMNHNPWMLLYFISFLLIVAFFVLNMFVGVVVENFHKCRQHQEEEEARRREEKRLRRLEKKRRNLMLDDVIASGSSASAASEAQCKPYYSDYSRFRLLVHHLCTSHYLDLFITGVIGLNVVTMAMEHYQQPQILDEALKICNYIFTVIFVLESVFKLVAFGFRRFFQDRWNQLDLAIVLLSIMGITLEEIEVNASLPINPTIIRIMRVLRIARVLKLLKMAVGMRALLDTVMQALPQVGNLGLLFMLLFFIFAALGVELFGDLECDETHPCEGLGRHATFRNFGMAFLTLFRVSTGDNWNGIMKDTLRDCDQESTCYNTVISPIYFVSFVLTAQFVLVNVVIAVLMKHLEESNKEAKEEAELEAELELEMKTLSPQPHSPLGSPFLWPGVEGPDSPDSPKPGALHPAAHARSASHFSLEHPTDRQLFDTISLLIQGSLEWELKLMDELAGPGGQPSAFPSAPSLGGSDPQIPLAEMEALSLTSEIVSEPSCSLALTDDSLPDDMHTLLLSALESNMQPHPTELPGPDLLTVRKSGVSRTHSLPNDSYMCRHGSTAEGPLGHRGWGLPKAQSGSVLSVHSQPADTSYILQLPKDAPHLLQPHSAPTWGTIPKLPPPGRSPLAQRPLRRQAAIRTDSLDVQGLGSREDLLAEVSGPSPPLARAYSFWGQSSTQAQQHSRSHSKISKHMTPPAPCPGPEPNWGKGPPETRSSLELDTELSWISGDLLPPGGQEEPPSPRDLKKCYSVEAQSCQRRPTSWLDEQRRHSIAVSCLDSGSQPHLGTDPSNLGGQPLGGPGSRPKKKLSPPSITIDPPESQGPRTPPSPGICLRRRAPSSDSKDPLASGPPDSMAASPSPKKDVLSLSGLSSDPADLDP

Row | IC50 [2] | SMILES | % Inhibition (Single Point Data) [1] | IC50
1 |  | CN(C(=O)CN1C2CCC1CN(Cc1nc3c(Cl)cc(F)cc3[nH]1)C2)C(C)(C)C(=O)O [Compound 87] | 7.971% | 
2 | 0.645 µM | CC(C)(C)NC(=O)CN1CCC(CNc2nccc3c(Cl)cc(F)cc23)CC1 [Compound 124] | 67.808% | 
3 |  | COCC(C)(C)NC(=O)CN1C2CCC1CN(Cc1nc3c(Cl)cc(F)cc3[nH]1)C2 [Compound 80] | 96.659% | 
4 |  | C[C@@H](c1nc2c(Cl)cc(F)cc2[nH]1)N1CC2CCC(C1)N2CC(=O)NC(C)(C)C [Compound 119] | 95.894% | 
5 |  | CC(C)(C)NC(=O)CN1C[C@@H]2C[C@H]1CN2CC(=O)NC12CC3CC(CC(O)(C3)C1)C2 [Compound 312] | 4.6566% | 
6 | < 0.0782 µM | CC(C)(C)NC(=O)CN1C[C@@H]2C[C@H]1CN2CC(=O)Nc1cc(F)cc(OC(F)F)c1 [Compound 22] | 97.77% | 
7 |  | CC(C)(C)NC(=O)CN1C[C@@H]2CC[C@H]1CN2CC(=O)Nc1cc(F)cc(Cl)c1 [Compound 270] | 95.978% | 
8 |  | Fc1cc(Cl)c2nc(CN3CC4CC(C3)N4CCC3(F)CCCC3)[nH]c2c1 [Compound 113] | 94.677% | 
9 |  | CC1(C)CC(CN2C3CC2CN(Cc2nc4c(Cl)cc(F)cc4[nH]2)C3)CCO1 (stereo not drawn) [Compound 112] | 82.988% | 
10 | 1.07 µM | Cc1ccc(NC(=O)CN2C[C@@H]3C[C@H]2CN3CC(=O)NC2(C(F)(F)F)CC2)cc1Cl [Compound 355] |  | 
11 | 0.0337 µM | CC(C)(NC(=O)CN1CC2CC1CN2CC(=O)Nc1cc(F)cc(Cl)c1)C(F)(F)F (stereo not drawn) [Compound 47] | 89.371% | 
12 |  | CC(C)(C)NC(=O)CN1C2CC1CN(CC(=O)Nc1cccc(OC(F)F)c1)C2 [Compound 12] | 81.341% | 
13 |  | CC(C)(CO)NC(=O)CN1C2CCC1CN(Cc1nc3c(Cl)cc(F)cc3[nH]1)C2 [Compound 79] | 100% | 
14 |  | CC(C)(C)NC(=O)CN1C2CC1CN(Cc1nc3c(F)ccc(F)c3[nH]1)C2 [Compound 165] | 87.314% | 
15 |  | COc1cc(Cl)cc(NC(=O)CN2CC3CC(C2)N3CC(=O)NC(C)(C)C)c1 [Compound 284] | 103.09% | 
16 | 4.02 µM | O=C(CN1C[C@@H]2C[C@H]1CN2CC1(F)CCC(F)(F)CC1)NC12CC3CC(CC(C3)C1)C2 [Compound 279] | 79.691% | 
17 |  | O=C(CN1C2CC1CN(Cc1nc3c(Cl)cc(F)cc3[nH]1)C2)NC1(C(F)(F)F)COC1 [Compound 182] | 92.993% | 0.0648 µM
18 | 0.734 µM | C[C@H](NC(=O)CN1C[C@@H]2C[C@H]1CN2CC(=O)NC(C)(C)C)C12CC3CC(CC(C3)C1)C2 [Compound 326] | 66.987% | 
19 | 0.457 µM | O=C(CN1C[C@@H]2C[C@H]1CN2CC(=O)NC1(C(F)(F)F)CC1)Nc1ccc(F)c(Cl)c1 [Compound 25] | 66.125% | 
20 |  | CN(C(=O)CN1C2CC1CN(Cc1nc3c(Cl)cc(F)cc3[nH]1)C2)C(C)(C)CO [Compound 128] | 18.511% | 
21 | 0.395 µM | Fc1cc(Cl)c2nc(CN3CCN(Cc4cc5ccccc5[nH]4)CC3)[nH]c2c1 [Compound 72] | 81.94% | 

Row | IC50 [2] | SMILES | % Inhibition (Single Point Data) [1] | IC50
22 |  | Fc1cc(Cl)c2nc(CN3CC4CCC(C3)N4CCOC3CCCCC3)[nH]c2c1 [Compound 95] | 100.41% | 
23 | 0.652 µM | Fc1cc(Cl)c2nc(CN3CCN(CC(F)(F)C4CCCC4)CC3)[nH]c2c1 [Compound 160] | 73.495% | 
24 |  | CC(C)(C)C(=O)NCCN1C2CC1CN(Cc1nc3c(Cl)cc(F)cc3[nH]1)C2 [Compound 134] | 94.728% | 
25 | 0.126 µM | CC(C)(C)NC(=O)CN1CC2COCC(C1)C2CC(=O)Nc1cc(F)cc(Cl)c1 (stereo not drawn) [Compound 368] |  | 
26 |  | CC(C)(C)NC(=O)CN1C[C@@H]2C[C@H]1CN2CC(=O)Nc1ccc(F)c(Cl)c1 [Compound 23] | 91.472% | 
27 | 0.215 µM | CC(C(=O)Nc1cc(F)cc(Cl)c1)N1C[C@@H]2C[C@H]1CN2CC(=O)NC1(C(F)(F)F)CC1 (stereo partly drawn) [Compound 262] | 87.794% | 
28 | 1.71 µM | CC(C)(C)NC(=O)CN1C[C@@H]2C[C@H]1CN2CC(=O)NC12CCC(CC1)C2 [Compound 288] | 23.299% | 
29 | 0.394 µM | Fc1cc(Cl)c2nc(CN3CCN(CCc4ccccc4)CC3)[nH]c2c1 [Compound 69] | 86.68% | 
30 |  | Cc1cc(CNC(=O)CN2CC3CC(C2)N3CC(=O)NC(C)(C)C)nn1-c1ccccc1 [Compound 273] | 6.1482% | 
31 |  | CC(C)(C)NC(=O)CN1C2CC1CN(CC(=O)Nc1cc(F)ccc1Cl)C2 [Compound 213] | 27.718% | 
32 |  | CC(c1nc2c(Cl)cc(F)cc2[nH]1)N1CC2CCC(C1)N2CC(=O)NC(C)(C)C (stereo not drawn) [Compound 201] | 95.763% | 0.0842 µM
33 | 0.162 µM | CC(C)(C)NC(=O)CN1C[C@H]2COC[C@@H](C1)[C@@H]2CC(=O)Nc1cc(F)cc(Cl)c1 [Compound 372] |  | 
34 |  | CC(C)(C)NC(=O)CN1C2CCC1CN(Cc1nc3c(Cl)cc(F)cc3[nH]1)C2 [Compound 64] | 100.15% | < 0.0782 µM
35 | 1.74 µM | CC(C)(C)NC(=O)CN1C[C@H]2COC[C@@H](C1)[C@H]2CNC(=O)c1cc(F)cc(Cl)c1 [Compound 370] |  | 
36 |  | CC(C)(C)NC(=O)CN1C[C@@H]2C[C@H]1CN2CC(=O)Nc1ccn(Cc2ccc(C#N)cn2)n1 [Compound 314] | 5.0515% | 
37 |  | CC(C)(C)NC(=O)CN1C2CC1CN(CC(=O)Nc1cc(F)ccc1C#N)C2 [Compound 219] | 35.823% | 
38 |  | CC(C)(C)NC(=O)CN1C2CC1CN(Cc1nc3c(Cl)cc(F)cc3[nH]1)C2 [Compound 62, N-(tert-butyl)-2-(3-((4-chloro-6-fluoro-1H-benzo[d]imidazol-2-yl)methyl)-3,6-diazabicyclo[3.1.1]heptan-6-yl)acetamide] | 102.05% | < 0.0782 µM
39 |  | CC(C)(C)NC(=O)CN1C2CC1CN(C(=O)NCC13CC4CC(CC(C4)C1)C3)C2 [Compound 295] | 0.753% | 
40 |  | CC(C(=O)Nc1ccc(F)c(OC(F)F)c1)N1CC2CC(C1)N2CC(=O)NC(C)(C)C (stereo not drawn) [Compound 256] | 100.73% | 
41 | 0.385 µM | COc1cc(NC(=O)CN2C[C@@H]3C[C@H]2CN3CC(=O)NC2(C(F)(F)F)CC2)ccc1F [Compound 311] | 83.804% | 

Row | SMILES | IC50 [2] | % Inhibition (Single Point Data) [1] | IC50
42 | CC(C)(C)NC(=O)CN1C2CCC1CN(CC(=O)NC13CC4CC(CC(C4)C1)C3)C2 [Compound 7] | 0.904 µM | 64.635% | 
43 | CC1(C(=O)NCCN2C3CC2CN(Cc2nc4c(Cl)cc(F)cc4[nH]2)C3)CC1 [Compound 121] | 0.254 µM | 96.032% | 
44 | N#CC1(CN2C3CC2CN(Cc2nc4c(Cl)ccc(F)c4[nH]2)C3)CCCCC1 [Compound 178] | 1.39 µM | 43.012% | 
45 | O=C(CN1C2CC1CN(Cc1nc3c(Cl)cc(F)cc3[nH]1)C2)OC1CCCC1 [Compound 141] | 0.162 µM | 100.15% | 
46 | CC(C)(C)CC(=O)N1C2CC1CN(Cc1nc3c(Cl)cc(F)cc3[nH]1)C2 [Compound 116] | 2.46 µM |  | 
47 | N#CC1(CN2C3CC2CN(CC(=O)Nc2cc(F)cc(Cl)c2)C3)CCC(F)(F)CC1 [Compound 52] | 0.853 µM | 51.764% | 
48 | O=C(CN1CC2CC(C1)N2CC(=O)NC1(C(F)(F)F)CC1)Nc1cc(F)c(F)c(OC(F)F)c1 [Compound 361] | 0.127 µM |  | 
49 | CC1(CN2C3CC2CN(Cc2nc4c(Cl)cc(F)cc4[nH]2)C3)CCOCC1 [Compound 106] | 1.11 µM | 52.218% | 
50 | CC(C)(C)NC(=O)CN1C2CCC1CN(CCc1nc3c(Cl)cc(F)cc3[nH]1)C2 [Compound 195] | 1.15 µM | 44.852% | 
51 | COc1ccc(Cl)c2nc(CN3CC4CC(C3)N4CC(=O)NC(C)(C)C)[nH]c12 [Compound 206] | 0.156 µM | 95.576% | 
52 | COc1ccc(F)c(NC(=O)CN2CC3CC(C2)N3CC(=O)NC(C)(C)C)c1 [Compound 222] | 1.1 µM | 52.3% | 
53 | COc1ccc(F)cc1NC(=O)CN1CC2CC(C1)N2CC(=O)NC(C)(C)C [Compound 218] | 2.89 µM | 36.544% | 
54 | COc1cc(F)cc2[nH]c(CN3CC4CC(C3)N4CCC3CCC(F)(F)CC3)nc12 [Compound 158] | 0.148 µM | 92.557% | 
